In ChEMBL document CHEMBL4311942, “Design of Trp-Rich Dodecapeptides with Broad-Spectrum Antimicrobial Potency and Membrane-Disruptive Mechanism” (J Med Chem, 2019):
≈ marks a conversion by molar mass, not a printed value. Where a SMILES comes first, the peptide text is derived from it.

Tests used:
Escherichia coli [1] = experiment: Antibacterial activity against Escherichia coli UB1005 incubated for 18 to 24 hrs by broth microdilution method; assay type: functional
[2] = Therapeutic index, ratio of MHC for human RBC to geometric mean of peptide MIC for Escherichia coli ATCC 25922; assay type: toxicity; details: pooled result: one value given for 6 cell lines, strains, targets or settings, read-out: TI
[3] = tested on: Staphylococcus epidermidis; experiment: Antibacterial activity against Staphylococcus epidermidis ATCC 12228 incubated for 18 to 24 hrs by broth microdilution method; assay type: functional
[4] = Cytotoxicity against mouse RAW264.7 cells assessed as cell survival at <= 32 uM after 24 hrs by MTT assay relative to control; assay type: cell-based; details: RAW264.7 cells, up to 32 µM, read-out: Activity
Erythrocyte = experiment: Haemolytic activity in human erythrocytes assessed as lowest concentration causing 5% hemolysis after 1 hr; assay type: ADME, cell-based
[5] = Solubility of the compound; assay type: physicochemical
Escherichia coli [6] = experiment: Antibacterial activity against Escherichia coli ATCC 25922 incubated for 18 to 24 hrs by broth microdilution method; assay type: functional
Staphylococcus aureus [7] = experiment: Antibacterial activity against Staphylococcus aureus ATCC 29213 incubated for 18 to 24 hrs by broth microdilution method; assay type: functional
Staphylococcus aureus [8] = experiment: Antibacterial activity against Staphylococcus aureus ATCC 25923 incubated for 18 to 24 hrs by broth microdilution method; assay type: functional
Salmonella typhimurium = experiment: Antibacterial activity against Salmonella enterica serovar typhimurium C77-31 incubated for 18 to 24 hrs by broth microdilution method; assay type: functional, Salmonella enterica subsp. enterica serovar Typhimurium

MIC (Escherichia coli [1]): 2 µM (≈ 3.68 µg/mL) | MIC [3]: 4 µM (≈ 7.37 µg/mL) | solubility [5]: Insoluble | MIC (Escherichia coli [6]): 4 µM (≈ 7.37 µg/mL) | MIC (Staphylococcus aureus [7]): 4 µM (≈ 7.37 µg/mL) | MIC (Staphylococcus aureus [8]): 2 µM (≈ 3.68 µg/mL) | MIC (Salmonella typhimurium): 4 µM (≈ 7.37 µg/mL)
Compound: CC(C)C[C@H](NC(=O)[C@H](CCCNC(=N)N)NC(=O)[C@H](Cc1c[nH]c2ccccc12)NC(=O)[C@H](CCCNC(=N)N)NC(=O)[C@@H](NC(=O)[C@H](Cc1c[nH]c2ccccc12)NC(=O)[C@H](Cc1c[nH]c2ccccc12)NC(=O)[C@H](CCCNC(=N)N)NC(=O)[C@H](CC(C)C)NC(=O)[C@H](Cc1c[nH]c2ccccc12)NC(=O)[C@@H](N)CCCNC(=N)N)[C@@H](C)O)C(=O)N[C@@H](CCCCN)C(N)=O (H-RWLRWWTRWRLK-NH2)
selectivity ratio [2]: 40.4 | viability at 24 h [4]: ≥ 70% | MHC (Erythrocyte): 128 µM
